Reference: publication PMC3961306, “Comparison of the Cancer Gene Targeting and Biochemical Selectivities of All Targeted Kinase Inhibitors Approved for Clinical Use” (PLoS ONE, 2014)

Experiments:
Test in all cases: Kinase profiling in a biochemical assay panel (mobility shift assays and ELISA), %-inhibition at 1 μM; selectivity entropy
[1] = biological target: panel of more than 300 wild-type and mutant kinases (313 kinase panel) (Homo sapiens, UniProt P07949, S891A)
[2] = biological target: panel of more than 300 wild-type and mutant kinases (313 kinase panel) (Homo sapiens, UniProt Q9H4A3)
Chain of panel of more than 300 wild-type and mutant kinases (313 kinase panel) (Homo sapiens, UniProt Q9H4A3) (Q9H4A3 whole entry, change not shown): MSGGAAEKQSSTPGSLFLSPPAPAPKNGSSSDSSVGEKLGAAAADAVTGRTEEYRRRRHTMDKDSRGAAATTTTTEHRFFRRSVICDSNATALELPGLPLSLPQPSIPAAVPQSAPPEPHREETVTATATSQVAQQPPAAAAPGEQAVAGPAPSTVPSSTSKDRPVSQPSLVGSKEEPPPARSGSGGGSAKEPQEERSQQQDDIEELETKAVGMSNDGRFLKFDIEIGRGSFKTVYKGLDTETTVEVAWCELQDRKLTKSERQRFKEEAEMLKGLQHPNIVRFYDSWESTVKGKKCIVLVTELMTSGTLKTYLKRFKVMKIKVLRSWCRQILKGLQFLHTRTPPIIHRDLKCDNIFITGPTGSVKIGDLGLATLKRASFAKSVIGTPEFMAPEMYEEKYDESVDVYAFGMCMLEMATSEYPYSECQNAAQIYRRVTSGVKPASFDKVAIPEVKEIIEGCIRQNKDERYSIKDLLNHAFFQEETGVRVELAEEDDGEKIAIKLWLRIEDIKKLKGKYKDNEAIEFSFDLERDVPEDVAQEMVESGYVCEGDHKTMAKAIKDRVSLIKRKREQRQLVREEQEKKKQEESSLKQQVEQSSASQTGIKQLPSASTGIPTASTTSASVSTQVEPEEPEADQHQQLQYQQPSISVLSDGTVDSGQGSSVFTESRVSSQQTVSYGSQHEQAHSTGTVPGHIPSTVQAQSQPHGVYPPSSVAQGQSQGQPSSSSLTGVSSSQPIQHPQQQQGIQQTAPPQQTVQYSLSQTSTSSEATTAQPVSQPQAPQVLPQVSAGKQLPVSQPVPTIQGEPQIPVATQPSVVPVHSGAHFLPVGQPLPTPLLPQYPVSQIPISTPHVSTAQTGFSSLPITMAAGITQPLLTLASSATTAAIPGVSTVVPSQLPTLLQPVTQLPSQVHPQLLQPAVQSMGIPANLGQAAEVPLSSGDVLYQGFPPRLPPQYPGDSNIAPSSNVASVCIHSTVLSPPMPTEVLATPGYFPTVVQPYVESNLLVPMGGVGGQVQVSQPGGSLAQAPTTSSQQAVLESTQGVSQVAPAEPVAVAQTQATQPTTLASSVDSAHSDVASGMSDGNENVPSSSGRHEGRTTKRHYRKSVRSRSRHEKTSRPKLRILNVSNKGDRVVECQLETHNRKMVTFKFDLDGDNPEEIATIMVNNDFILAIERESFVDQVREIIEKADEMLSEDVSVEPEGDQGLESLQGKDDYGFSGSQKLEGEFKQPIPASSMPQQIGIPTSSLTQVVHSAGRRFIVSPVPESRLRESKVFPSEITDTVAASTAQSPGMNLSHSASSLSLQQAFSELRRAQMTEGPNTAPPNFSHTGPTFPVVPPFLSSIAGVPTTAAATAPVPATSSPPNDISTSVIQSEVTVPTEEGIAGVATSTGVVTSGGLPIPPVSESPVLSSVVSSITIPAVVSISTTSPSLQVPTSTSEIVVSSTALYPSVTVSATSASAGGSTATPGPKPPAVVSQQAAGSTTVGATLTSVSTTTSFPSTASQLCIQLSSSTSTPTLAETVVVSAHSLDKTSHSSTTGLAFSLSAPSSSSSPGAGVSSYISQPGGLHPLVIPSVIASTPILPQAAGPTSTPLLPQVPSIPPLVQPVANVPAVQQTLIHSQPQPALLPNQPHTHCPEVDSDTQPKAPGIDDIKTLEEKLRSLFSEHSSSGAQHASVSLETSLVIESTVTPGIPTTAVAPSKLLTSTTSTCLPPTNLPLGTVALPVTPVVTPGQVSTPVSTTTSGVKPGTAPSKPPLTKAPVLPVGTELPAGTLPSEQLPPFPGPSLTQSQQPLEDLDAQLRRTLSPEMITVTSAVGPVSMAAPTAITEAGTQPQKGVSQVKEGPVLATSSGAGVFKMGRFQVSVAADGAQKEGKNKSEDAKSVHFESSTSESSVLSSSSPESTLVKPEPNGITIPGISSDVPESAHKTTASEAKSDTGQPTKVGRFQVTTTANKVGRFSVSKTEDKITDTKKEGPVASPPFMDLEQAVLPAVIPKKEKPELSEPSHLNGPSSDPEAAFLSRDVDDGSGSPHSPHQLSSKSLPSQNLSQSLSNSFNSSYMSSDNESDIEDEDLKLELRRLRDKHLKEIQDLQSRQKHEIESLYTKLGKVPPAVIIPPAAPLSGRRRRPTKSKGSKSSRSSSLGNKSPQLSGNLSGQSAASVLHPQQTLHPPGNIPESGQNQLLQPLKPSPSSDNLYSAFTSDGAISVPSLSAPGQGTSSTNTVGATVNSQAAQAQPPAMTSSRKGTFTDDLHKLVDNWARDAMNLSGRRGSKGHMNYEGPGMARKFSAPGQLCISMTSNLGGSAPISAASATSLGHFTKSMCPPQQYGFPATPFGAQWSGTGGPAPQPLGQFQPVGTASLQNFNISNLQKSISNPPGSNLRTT

[3] = biological target: panel of more than 300 wild-type and mutant kinases (313 kinase panel) (Homo sapiens, UniProt P22455)
[4] = biological target: panel of more than 300 wild-type and mutant kinases (313 kinase panel) (Homo sapiens, UniProt Q96RG2)
Chain of panel of more than 300 wild-type and mutant kinases (313 kinase panel) (Homo sapiens, UniProt Q96RG2) (Q96RG2 whole entry, change not shown): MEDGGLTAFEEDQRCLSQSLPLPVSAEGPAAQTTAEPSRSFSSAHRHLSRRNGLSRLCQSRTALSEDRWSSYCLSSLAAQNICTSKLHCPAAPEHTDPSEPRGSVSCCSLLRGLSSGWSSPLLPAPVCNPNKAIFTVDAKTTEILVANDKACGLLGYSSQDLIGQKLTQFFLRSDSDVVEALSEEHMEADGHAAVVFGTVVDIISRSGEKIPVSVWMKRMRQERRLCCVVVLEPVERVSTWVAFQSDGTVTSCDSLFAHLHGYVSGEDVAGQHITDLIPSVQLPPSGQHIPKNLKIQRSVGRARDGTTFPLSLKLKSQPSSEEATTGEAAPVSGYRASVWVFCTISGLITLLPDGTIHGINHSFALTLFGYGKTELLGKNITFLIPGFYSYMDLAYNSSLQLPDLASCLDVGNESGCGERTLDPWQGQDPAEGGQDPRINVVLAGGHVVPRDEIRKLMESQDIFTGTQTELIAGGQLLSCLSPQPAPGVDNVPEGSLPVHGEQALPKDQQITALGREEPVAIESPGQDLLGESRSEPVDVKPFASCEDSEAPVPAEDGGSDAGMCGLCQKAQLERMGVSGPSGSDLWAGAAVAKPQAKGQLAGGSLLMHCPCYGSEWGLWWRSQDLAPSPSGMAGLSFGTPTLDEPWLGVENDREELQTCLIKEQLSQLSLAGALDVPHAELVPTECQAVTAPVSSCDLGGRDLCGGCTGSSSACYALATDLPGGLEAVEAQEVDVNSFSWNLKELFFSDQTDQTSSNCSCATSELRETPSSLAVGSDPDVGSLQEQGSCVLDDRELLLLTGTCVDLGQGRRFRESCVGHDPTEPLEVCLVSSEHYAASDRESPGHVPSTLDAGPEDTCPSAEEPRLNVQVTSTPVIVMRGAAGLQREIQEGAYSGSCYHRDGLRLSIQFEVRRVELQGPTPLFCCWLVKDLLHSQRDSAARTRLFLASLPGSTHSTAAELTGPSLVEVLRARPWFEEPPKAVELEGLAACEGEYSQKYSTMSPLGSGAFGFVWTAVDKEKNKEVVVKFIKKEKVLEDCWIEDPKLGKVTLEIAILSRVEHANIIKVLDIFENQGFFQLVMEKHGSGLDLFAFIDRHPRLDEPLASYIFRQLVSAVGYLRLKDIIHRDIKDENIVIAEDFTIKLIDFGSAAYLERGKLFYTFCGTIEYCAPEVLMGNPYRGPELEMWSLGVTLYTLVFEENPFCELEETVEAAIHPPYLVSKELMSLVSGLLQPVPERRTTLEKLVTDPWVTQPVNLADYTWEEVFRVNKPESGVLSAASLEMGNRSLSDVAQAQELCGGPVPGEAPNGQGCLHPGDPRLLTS

[5] = biological target: T1, panel of more than 300 wild-type and mutant kinases (313 kinase panel) (Homo sapiens, UniProt O15264)
T1 sequence (O15264 1-365): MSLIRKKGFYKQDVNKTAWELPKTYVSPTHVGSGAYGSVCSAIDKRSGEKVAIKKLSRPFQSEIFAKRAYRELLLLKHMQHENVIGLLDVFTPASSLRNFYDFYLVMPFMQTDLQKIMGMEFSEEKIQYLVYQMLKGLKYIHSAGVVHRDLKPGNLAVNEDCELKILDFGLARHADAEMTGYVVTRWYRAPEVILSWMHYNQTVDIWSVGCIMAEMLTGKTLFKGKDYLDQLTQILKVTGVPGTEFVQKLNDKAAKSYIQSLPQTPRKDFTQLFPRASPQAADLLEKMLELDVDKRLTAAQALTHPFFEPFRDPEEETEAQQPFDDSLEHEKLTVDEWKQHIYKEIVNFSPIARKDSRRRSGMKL

[6] = biological target: T2, panel of more than 300 wild-type and mutant kinases (313 kinase panel) (Homo sapiens, UniProt P42681)
T2 sequence (P42681 1-527): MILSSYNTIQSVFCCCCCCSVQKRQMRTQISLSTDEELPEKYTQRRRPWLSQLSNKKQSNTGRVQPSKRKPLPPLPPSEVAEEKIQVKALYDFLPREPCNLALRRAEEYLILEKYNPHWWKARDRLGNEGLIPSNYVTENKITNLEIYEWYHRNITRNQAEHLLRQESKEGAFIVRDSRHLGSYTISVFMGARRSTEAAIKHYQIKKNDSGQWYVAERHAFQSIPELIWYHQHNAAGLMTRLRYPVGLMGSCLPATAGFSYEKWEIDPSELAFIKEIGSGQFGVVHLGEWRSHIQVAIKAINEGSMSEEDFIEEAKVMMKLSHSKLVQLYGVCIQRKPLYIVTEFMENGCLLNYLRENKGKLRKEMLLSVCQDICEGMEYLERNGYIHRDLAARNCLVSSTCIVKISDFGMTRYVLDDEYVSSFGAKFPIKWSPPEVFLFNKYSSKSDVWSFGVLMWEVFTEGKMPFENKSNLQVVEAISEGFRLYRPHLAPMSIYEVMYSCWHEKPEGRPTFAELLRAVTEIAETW

[7] = biological target: T3, panel of more than 300 wild-type and mutant kinases (313 kinase panel) (Homo sapiens, UniProt O60285)
T3 sequence (O60285 1-661): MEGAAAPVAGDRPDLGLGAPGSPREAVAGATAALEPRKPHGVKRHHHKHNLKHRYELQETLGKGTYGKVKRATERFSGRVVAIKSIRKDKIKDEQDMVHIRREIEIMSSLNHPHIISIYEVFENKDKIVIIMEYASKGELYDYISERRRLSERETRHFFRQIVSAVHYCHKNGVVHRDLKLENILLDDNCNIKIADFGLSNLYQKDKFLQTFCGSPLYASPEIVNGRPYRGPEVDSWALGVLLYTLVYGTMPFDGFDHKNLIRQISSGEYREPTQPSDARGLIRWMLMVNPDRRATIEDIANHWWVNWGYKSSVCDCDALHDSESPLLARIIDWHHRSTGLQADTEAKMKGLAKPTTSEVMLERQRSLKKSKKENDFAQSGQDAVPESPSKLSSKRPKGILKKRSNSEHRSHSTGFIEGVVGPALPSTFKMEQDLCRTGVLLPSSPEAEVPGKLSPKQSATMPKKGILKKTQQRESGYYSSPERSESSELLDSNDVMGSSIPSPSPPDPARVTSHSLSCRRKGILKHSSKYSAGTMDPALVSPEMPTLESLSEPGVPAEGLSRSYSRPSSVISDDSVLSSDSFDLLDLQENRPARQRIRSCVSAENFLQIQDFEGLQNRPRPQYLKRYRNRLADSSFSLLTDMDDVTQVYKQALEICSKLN

[8] = biological target: T4, panel of more than 300 wild-type and mutant kinases (313 kinase panel) (Homo sapiens, UniProt P53778)
T4 sequence (P53778 1-367): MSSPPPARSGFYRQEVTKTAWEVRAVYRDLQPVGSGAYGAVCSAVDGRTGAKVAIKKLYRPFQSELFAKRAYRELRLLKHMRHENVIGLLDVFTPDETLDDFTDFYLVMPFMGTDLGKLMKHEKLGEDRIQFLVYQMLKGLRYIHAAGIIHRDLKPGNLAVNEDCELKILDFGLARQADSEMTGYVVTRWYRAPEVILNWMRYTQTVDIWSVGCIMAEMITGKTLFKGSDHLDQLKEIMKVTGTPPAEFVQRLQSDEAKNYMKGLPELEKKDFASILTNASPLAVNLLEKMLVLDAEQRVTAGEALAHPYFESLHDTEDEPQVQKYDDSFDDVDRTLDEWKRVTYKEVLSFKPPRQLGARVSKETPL

[9] = biological target: panel of more than 300 wild-type and mutant kinases (313 kinase panel) (Homo sapiens, UniProt O96013)

Chain of panel of more than 300 wild-type and mutant kinases (313 kinase panel) (Homo sapiens, UniProt P07949, S891A) (P07949 29-1114 S891A): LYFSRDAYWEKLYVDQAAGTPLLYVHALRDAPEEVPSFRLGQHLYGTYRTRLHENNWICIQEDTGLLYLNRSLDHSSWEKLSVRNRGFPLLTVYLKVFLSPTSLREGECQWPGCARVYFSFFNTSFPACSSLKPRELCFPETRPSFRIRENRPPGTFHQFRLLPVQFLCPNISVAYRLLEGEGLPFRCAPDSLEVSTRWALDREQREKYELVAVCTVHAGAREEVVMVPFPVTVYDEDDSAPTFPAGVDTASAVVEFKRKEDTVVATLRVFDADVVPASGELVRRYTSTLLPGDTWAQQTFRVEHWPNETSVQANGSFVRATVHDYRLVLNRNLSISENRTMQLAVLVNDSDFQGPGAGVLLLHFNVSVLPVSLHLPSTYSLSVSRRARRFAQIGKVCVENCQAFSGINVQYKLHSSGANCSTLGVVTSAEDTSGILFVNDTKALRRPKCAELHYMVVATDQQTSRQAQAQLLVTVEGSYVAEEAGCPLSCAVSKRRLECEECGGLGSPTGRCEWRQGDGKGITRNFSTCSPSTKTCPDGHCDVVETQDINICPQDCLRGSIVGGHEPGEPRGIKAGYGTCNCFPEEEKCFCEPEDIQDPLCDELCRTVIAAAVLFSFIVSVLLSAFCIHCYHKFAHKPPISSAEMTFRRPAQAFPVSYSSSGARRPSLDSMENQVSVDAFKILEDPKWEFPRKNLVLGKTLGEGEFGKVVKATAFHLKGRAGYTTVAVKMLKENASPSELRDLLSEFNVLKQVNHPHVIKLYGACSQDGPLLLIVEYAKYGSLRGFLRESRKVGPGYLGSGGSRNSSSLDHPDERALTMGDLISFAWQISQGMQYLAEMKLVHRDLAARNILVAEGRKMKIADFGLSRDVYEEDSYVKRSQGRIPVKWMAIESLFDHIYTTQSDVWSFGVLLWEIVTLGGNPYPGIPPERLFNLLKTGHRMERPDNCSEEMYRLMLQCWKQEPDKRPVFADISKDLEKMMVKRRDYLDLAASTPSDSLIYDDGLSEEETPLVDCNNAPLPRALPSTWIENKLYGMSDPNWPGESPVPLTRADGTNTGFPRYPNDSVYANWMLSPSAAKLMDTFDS

Row | Compound | %-inhibition of RET(S891A) ([1]; kinase RET(S891A), 1 μM) [%] | %-inhibition of WNK1 ([2]; kinase WNK1, compound at 1 μM) [%] | %-inhibition of FGFR4 ([3]; kinase FGFR4, compound at 1 μM) [%] | %-inhibition of PASK ([4]; kinase PASK, 1 μM) [%] | %-inhibition of p38δ ([5]; kinase p38δ, 1 μM) [%] | %-inhibition of TXK ([6]; kinase TXK, compound at 1 μM) [%] | %-inhibition of NuaK1 ([7]; kinase NuaK1, 1 μM) [%] | %-inhibition of p38γ ([8]; kinase p38γ, 1 μM) [%] | %-inhibition of PAK4 ([9]; kinase PAK4, 1 μM) [%] | %-inhibition of RET(S891A) ([1]; 1 µM) [%] | %-inhibition of NuaK1 ([7]; 1 µM) [%] | %-inhibition of TXK ([6]; 1 µM) [%] | %-inhibition of WNK1 ([2]; 1 µM) [%] | %-inhibition of FGFR4 ([3]; 1 µM) [%] | %-inhibition of PASK ([4]; 1 µM) [%] | %-inhibition of p38δ ([5]; 1 µM) [%] | %-inhibition of p38γ ([8]; 1 µM) [%] | %-inhibition of PAK4 ([9]; 1 µM) [%]
1 | CO[C@H]1C[C@@H]2CC[C@@H](C)[C@@](O)(O2)C(=O)C(=O)N2CCCC[C@H]2C(=O)O[C@H]([C@H](C)C[C@@H]2CC[C@@H](OC(=O)C(C)(CO)CO)[C@H](OC)C2)CC(=O)[C@H](C)/C=C(\C)[C@@H](O)[C@@H](OC)C(=O)[C@H](C)C[C@H](C)/C=C/C=C/C=C/1C [temsirolimus] | -2.19 | -4.27 | -4.51 | -8 | -5.63 | -7 | 3.3 | -5.48 | -19 |  |  |  |  |  |  |  |  | 
2 | CNC(=O)c1cc(Oc2ccc(NC(=O)Nc3ccc(Cl)c(C(F)(F)F)c3)c(F)c2)ccn1 [regorafenib] |  | -4 | 33 | 0.282 | 2.22 | -2.18 | -1.75 | 16 | -15 | 102 |  |  |  |  |  |  |  | 
3 | CO[C@H]1C[C@@H]2CC[C@@H](C)[C@@](O)(O2)C(=O)C(=O)N2CCCC[C@H]2C(=O)O[C@H]([C@H](C)C[C@@H]2CC[C@@H](OCCO)[C@H](OC)C2)CC(=O)[C@H](C)/C=C(\C)[C@@H](O)[C@@H](OC)C(=O)[C@H](C)C[C@H](C)/C=C/C=C/C=C/1C [everolimus] | -3 | -5 | -7.59 | -9 | -9 | -4.36 | 4.27 | -7 | -4 |  |  |  |  |  |  |  |  | 
4 | COc1cc2nccc(Oc3ccc(NC(=O)C4(C(=O)Nc5ccc(F)cc5)CC4)cc3)c2cc1OC [cabozantinib] |  | -1.85 | 8 | -2.16 | 47 | 18 | 7 | 23 | -13 |  |  |  |  |  |  |  |  | 
5 | Cc1nc(Nc2ncc(C(=O)Nc3c(C)cccc3Cl)s2)cc(N2CCN(CCO)CC2)n1 [dasatinib] |  |  |  |  | 0.799 |  |  |  |  |  |  |  |  |  |  |  |  | 
6 | COc1cc2c(Nc3ccc(Br)cc3F)ncnc2cc1OCC1CCN(C)CC1 [vandetanib] |  | -2.36 | 31 | -4.23 | 0.0923 | 60 | 16 | -3.79 | -11 |  |  |  |  |  |  |  |  | 
7 | Cc1ccc(Nc2nccc(N(C)c3ccc4c(C)n(C)nc4c3)n2)cc1S(N)(=O)=O [pazopanib] | 100 | -3.67 |  | -2.41 | -0.586 | 52 | 73 | -5 | 1.68 |  |  |  |  |  |  |  |  | 
8 | N#CC[C@H](C1CCCC1)n1cc(-c2ncnc3[nH]ccc23)cn1 [ruxolitinib] |  | -4 | 6 | 0.47 | 0.0923 | 10 | 55 | -2.39 | 0.371 |  |  |  |  |  |  |  |  | 
9 | C[C@@H](Oc1cc(-c2cnn(C3CCNCC3)c2)cnc1N)c1c(Cl)ccc(F)c1Cl [crizotinib] |  | -3 | 0 | 1 | -3.41 | 39 |  |  | -5.56 |  | 99 |  |  |  |  |  |  | 
10 | O=S(=O)(c1cccc2cnccc12)N1CCCNCC1 [fasudil] | -1.38 | 3 |  | 2.25 | -4.39 | 1 | 44 | 1.68 |  |  |  |  |  |  |  |  |  | 
11 | CS(=O)(=O)CCNCc1ccc(-c2ccc3ncnc(Nc4ccc(OCc5cccc(F)c5)c(Cl)c4)c3c2)o1 [lapatinib] |  | -0.825 | 0.821 | -5 | 5.43 |  | 3 | -1.19 |  | 0.932 |  | 0.699 |  |  |  |  |  | 
12 | C#Cc1cccc(Nc2ncnc3cc(OCCOC)c(OCCOC)cc23)c1 [erlotinib] |  |  |  |  |  |  |  |  |  | 93 | 12 |  | 1.82 | 6 | -9 | 6 | 4.5 | -4
13 | COc1cc(Nc2c(C#N)cnc3cc(OCCCN4CCN(C)CC4)c(OC)cc23)c(Cl)cc1Cl [bosutinib] | 90 |  | 2.67 | -0.0941 |  | 72 | 84 | -6 |  |  |  |  |  |  |  |  |  | 
14 | CCN(CC)CCNC(=O)c1c(C)[nH]c(/C=C2\C(=O)Nc3ccc(F)cc32)c1C [sunitinib] |  |  |  |  |  |  |  |  | 6.58 |  |  |  |  |  |  |  |  | 
15 | Cc1ccc(C(=O)Nc2ccc(CN3CCN(C)CC3)c(C(F)(F)F)c2)cc1C#Cc1cnc2cccnn12 [ponatinib] | 102 |  | 98 | 25 |  | 98 | 5 | 86 |  |  |  |  |  |  |  |  |  | 
